One series concerns the target T1, NaV1.5 (Homo sapiens, UniProt Q14524).
T1 construct: permanently transfected with an expression vector containing the full-length cDNA coding for the desired human sodium channel α-subunit; expressed in transfected cells; host or cells: HEK-293
As to the kind of experiment: Patch voltage clamp electrophysiology assay (EP), NaV1.5. The series is classed as cell-based. The note with it: HEK-293 cells stably expressing NaV1.5 with β1 subunit, whole-cell patch clamp, membrane potential −60 mV (inactivated state). The method, boiled down:
(§1)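 HEK-293 cells stably expressing human α-subunit with β1; whole-cell patch clamp (PatchXpress or manual), ambient temperature, pH 7.4 external NaCl, CsF internal. Held at −60 mV (full inactivation), stepped to −150 mV for 20 ms, then test pulse; percent current decrease after compound wash-on taken as block.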
(In general: Patch clamp records ionic current or voltage across a cell membrane.)

The target of another series is T2, human NaV1.7 (Homo sapiens, UniProt Q15858).
T2 construct: permanently transfected with an expression vector containing the full-length cDNA coding for the desired human sodium channel α-subunit; expressed in transfected cells; host or cells: HEK-293
As to the kind of experiment: Patch voltage clamp electrophysiology assay (EP), NaV1.7. The note with it: HEK-293 cells stably expressing NaV1.7 with β1 subunit; whole-cell patch clamp, membrane potential −60 mV (inactivated state). The series is classed as cell-based. The essentials: as §1

The next series deals with T3, hNav1.7 (Homo sapiens, UniProt Q15858).
T3 construct: expressed in transfected cells
As to the kind of experiment: Tritiated compound binding (LBA) to membranes from cells expressing hNav1.7 and the β1 subunit, competitive binding. The note with it: competitive binding vs 100 pM [3H]compound, 18 h, room temperature, membranes with hNav1.7 and β1 subunit. The essentials:
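Membranes from cells expressing hNav1.7 with β1 were incubated 18 h at room temperature with 100 pM tritiated formula (I) compound and increasing test compound, in 100 mM NaCl, 20 mM Tris HCl pH 7.4, 0.01% BSA.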

Where [1] appears, read: human, HEK-293 cells stably expressing human NaV1.5 with β1 subunit, pH 7.4.

Like-named read-outs stand apart in the source and are kept apart here.

T2 sequence (Q15858 1-1977 isoform Q15858-3): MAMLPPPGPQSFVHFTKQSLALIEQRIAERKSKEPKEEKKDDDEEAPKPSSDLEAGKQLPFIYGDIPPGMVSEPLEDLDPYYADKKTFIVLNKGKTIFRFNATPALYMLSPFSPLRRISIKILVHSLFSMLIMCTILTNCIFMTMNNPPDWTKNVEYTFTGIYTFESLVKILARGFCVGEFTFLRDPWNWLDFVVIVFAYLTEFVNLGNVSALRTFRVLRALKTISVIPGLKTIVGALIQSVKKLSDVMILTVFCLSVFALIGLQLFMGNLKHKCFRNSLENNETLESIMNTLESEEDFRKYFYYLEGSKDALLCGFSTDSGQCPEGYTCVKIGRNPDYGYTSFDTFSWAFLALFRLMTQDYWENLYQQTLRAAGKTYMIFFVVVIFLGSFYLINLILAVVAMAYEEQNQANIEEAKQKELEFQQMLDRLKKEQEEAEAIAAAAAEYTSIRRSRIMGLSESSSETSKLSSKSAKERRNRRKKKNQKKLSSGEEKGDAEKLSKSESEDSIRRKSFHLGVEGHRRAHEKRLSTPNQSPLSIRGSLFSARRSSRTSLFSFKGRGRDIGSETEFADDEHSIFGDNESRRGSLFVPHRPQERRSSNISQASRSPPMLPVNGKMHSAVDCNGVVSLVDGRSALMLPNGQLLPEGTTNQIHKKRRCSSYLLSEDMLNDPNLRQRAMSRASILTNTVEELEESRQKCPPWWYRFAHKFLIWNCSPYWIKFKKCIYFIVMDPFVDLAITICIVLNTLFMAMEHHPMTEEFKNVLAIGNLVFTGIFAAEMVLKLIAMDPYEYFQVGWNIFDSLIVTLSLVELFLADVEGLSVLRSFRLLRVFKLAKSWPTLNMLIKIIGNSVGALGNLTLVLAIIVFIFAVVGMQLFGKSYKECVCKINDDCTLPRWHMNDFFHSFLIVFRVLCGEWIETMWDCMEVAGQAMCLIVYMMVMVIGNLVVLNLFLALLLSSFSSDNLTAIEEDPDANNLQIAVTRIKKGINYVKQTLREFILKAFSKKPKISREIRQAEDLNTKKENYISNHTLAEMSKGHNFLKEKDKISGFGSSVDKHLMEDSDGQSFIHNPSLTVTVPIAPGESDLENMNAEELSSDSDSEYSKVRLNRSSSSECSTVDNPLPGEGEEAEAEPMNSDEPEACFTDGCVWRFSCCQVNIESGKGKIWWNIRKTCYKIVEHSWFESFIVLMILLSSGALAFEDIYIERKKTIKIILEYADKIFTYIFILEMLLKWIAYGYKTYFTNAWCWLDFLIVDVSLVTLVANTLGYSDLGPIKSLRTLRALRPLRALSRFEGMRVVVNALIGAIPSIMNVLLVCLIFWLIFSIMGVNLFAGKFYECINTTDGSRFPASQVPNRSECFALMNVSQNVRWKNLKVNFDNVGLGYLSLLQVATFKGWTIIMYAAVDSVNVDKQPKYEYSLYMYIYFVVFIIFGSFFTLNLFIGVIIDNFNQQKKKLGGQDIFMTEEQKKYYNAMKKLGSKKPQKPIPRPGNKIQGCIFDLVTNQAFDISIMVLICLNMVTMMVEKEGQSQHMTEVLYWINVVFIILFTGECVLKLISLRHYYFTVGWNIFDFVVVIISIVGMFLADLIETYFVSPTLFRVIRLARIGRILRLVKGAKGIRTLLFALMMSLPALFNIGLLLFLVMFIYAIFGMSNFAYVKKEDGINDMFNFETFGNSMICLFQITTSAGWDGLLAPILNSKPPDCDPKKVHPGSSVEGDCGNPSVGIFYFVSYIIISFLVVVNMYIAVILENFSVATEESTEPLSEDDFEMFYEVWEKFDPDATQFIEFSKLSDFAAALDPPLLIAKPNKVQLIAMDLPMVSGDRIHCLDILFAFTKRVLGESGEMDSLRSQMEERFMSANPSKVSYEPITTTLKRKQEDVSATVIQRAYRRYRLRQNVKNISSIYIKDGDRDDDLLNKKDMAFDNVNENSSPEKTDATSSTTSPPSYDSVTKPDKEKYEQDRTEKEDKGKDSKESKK
T2 sequence (Q07699 19-218 partner): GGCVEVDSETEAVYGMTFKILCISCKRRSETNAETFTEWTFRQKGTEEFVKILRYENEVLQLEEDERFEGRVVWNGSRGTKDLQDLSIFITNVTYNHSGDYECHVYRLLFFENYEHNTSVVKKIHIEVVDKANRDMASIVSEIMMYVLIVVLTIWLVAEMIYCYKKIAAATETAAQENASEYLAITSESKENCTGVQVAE
T3 sequence (Q15858 1-1977 isoform Q15858-3): as the sequence (Q15858 1-1977 isoform Q15858-3) above
T3 sequence (Q07699 19-218 partner): as the sequence (Q07699 19-218 partner) above
T1 sequence (Q14524 whole entry): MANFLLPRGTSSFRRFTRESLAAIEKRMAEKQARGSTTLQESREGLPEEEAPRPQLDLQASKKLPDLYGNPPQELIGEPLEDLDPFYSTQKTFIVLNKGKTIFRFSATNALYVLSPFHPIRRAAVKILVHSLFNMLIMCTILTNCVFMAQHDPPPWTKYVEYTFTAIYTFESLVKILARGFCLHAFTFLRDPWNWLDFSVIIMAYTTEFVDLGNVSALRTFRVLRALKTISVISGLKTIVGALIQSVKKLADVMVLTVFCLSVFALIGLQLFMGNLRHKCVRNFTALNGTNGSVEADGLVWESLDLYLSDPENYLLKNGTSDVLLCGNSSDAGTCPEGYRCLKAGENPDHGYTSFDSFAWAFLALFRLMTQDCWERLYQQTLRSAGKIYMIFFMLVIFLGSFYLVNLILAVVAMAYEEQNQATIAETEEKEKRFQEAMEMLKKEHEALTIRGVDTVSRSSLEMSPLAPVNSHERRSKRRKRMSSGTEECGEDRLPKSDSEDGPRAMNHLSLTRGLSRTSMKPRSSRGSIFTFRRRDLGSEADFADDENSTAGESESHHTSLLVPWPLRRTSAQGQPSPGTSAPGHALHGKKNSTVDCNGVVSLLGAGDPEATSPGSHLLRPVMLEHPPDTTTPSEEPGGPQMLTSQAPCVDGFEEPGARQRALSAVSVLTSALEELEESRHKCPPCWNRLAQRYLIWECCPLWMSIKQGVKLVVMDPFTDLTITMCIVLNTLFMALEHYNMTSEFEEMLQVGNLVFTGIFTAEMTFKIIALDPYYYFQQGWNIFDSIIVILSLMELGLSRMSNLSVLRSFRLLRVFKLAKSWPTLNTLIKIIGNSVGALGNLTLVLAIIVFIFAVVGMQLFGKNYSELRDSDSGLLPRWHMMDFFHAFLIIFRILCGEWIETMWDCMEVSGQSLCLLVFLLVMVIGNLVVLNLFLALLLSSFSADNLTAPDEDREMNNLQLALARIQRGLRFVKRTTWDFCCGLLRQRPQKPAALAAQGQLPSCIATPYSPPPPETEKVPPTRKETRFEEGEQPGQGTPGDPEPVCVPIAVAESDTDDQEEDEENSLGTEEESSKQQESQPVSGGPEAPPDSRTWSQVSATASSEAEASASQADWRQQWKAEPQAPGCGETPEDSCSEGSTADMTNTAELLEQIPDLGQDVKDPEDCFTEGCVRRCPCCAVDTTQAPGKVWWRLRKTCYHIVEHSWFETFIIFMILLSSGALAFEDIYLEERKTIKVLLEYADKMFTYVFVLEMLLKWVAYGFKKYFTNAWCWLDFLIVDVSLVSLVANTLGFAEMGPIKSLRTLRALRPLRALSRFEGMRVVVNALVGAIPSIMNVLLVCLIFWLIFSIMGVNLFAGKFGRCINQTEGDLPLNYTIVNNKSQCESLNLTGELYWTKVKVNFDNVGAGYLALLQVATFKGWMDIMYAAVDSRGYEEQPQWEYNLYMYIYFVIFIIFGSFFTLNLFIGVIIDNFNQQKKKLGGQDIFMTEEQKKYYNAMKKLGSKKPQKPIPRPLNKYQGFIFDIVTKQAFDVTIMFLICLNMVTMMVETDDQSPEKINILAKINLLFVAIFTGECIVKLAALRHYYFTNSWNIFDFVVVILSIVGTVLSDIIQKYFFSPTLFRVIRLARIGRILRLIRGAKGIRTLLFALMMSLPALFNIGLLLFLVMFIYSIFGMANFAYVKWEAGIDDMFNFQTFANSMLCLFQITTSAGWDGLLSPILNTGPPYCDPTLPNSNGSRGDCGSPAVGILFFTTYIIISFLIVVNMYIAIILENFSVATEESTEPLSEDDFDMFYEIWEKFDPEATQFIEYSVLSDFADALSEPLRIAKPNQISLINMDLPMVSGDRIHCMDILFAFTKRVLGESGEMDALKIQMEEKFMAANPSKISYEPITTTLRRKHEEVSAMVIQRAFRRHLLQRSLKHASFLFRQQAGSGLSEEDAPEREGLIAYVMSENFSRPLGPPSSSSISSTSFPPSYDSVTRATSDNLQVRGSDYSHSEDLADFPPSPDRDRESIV

Regarding `O=C(O)C[C@@H]1CCN1C(=O)c1cc(C2CC2)c(OCC23CC4CC(CC(C4)C2)C3)cc1F` [Example 215, 2-((S)-1-(4-((adamantan-1-yl)methoxy)-5-cyclopropyl-2-fluorobenzoyl)azetidin-2-yl)acetic acid], the IC50 is ≥ 30 µM against NaV1.5 (setting [1]), 5.4 µM at human NaV1.7 and 1.1 µM at hNav1.7.

`O=C(O)[C@@H]1CCCN1C(=O)c1ccc(OCC23CC4CC(CC(C4)C2)C3)c(C(F)(F)F)c1` [Example 85, (S)-1-(4-(adamantan-1-ylmethoxy)-3-(trifluoromethyl)benzoyl)-pyrrolidine-2-carboxylic acid]: the IC50 at NaV1.5 (read-out: Nav1.5) worked out at 17 µM; against human NaV1.7 it was 1.1 µM; at hNav1.7, 0.59 µM.

As for `O=C(O)[C@@H]1CCCN1C(=O)c1cc(C2CC2)c(OC2C3CC4CC2CC(Cl)(C4)C3)cc1F` (single isomer, unassigned) [Example 80], the IC50 was ≥ 30 µM against NaV1.5 (setting [1]), 1.5 µM at human NaV1.7 and 0.59 µM on hNav1.7.

`O=C(c1cc(C2CC2)c(OCC23CC4CC(CC(C4)C2)C3)cc1F)N1CCC[C@H]1c1nnn[nH]1` [Example 54, ((S)-2-(1H-tetrazol-5-yl)pyrrolidin-1-yl)(4-(adamantan-1-ylmethoxy)-5-cyclopropyl-2-fluorophenyl)methanone]: the values for the IC50 at NaV1.5 (read-out: Nav1.5), against human NaV1.7 and at hNav1.7 were 9.7 µM, 0.62 µM and 0.058 µM, respectively.

On to `O=C(O)[C@@H]1CS(=O)(=O)CN1C(=O)c1cc(C2CC2)c(OCC23CC4CC(CC(C4)C2)C3)cc1F` [Example 143, (4R)-3-[4-(1-adamantylmethoxy)-5-cyclopropyl-2-fluoro-benzoyl]-1,1-dioxo-1,3-thiazolidine-4-carboxylic acid], for which the results for the IC50 on NaV1.5 (read-out: Nav1.5), against human NaV1.7 and at hNav1.7 were 21 µM, 1.2 µM and 0.17 µM, respectively.

With `CO[C@@H]1CN(C(=O)c2cc(C3CC3)c(OCC34CC5CC(CC(C5)C3)C4)cc2F)[C@H](C(=O)O)[C@H]1C` [Example 207, (2S,3R,4S)-1-(4-(adamantan-1-ylmethoxy)-5-cyclopropyl-2-fluorobenzoyl)-4-methoxy-3-methylpyrrolidine-2-carboxylic acid], the IC50 on NaV1.5 (read-out: Nav1.5) turned out to be 16 µM; against human NaV1.7, 0.38 µM; at hNav1.7 it was 0.036 µM.

In the case of `O=C(O)[C@@H]1C[C@@H](F)CN1C(=O)c1cc(C2CC2)c(OCC2CCN(Cc3ccc(Cl)c(F)c3)CC2)cc1F` [Example 104, (2S,4R)-1-(4-((1-(4-chloro-3-fluorobenzyl)piperidin-4-yl)methoxy)-5-cyclopropyl-2-fluorobenzoyl)-4-fluoropyrrolidine-2-carboxylic acid], the IC50 on NaV1.5 (setting [1]) is ≥ 30 µM; against human NaV1.7, 1.6 µM; at hNav1.7 it was 0.13 µM.

For the compound `CC1(COc2cc(F)c(C(=O)N3C[C@H](F)C[C@H]3C(=O)O)cc2C2CC2)CN([C@@H](c2ccccc2)c2cc(Cl)cc(Cl)c2)C1` (single isomer, unassigned) [Example 117], the IC50 at NaV1.5 (read-out: Nav1.5) is 8.5 µM; against human NaV1.7 it was 0.51 µM; at hNav1.7, 0.023 µM.

As to `CC(C)Nc1ccc(F)cc1CN1CCC(COc2cc(F)c(C(=O)N3C[C@H](F)C[C@H]3C(=O)O)cc2C2CC2)CC1` [Example 107, (2S,4R)-1-(5-cyclopropyl-2-fluoro-4-((1-(5-fluoro-2-(isopropylamino)benzyl)-piperidin-4-yl)methoxy)benzoyl)-4-fluoropyrrolidine-2-carboxylic acid], the results for the IC50 on NaV1.5 (read-out: Nav1.5), on human NaV1.7 and on hNav1.7 were 12 µM, 0.73 µM and 0.039 µM, respectively.

`O=C(N[C@H](C(=O)O)C1CC1)c1cc(C2CC2)c(OCC2CCN([C@@H](c3ccccc3)c3cc(Cl)cc(Cl)c3)CC2)cc1F` (single isomer, unassigned) [Example 119]: the IC50 on NaV1.5 (read-out: Nav1.5) came to 9.4 µM; against human NaV1.7, 0.85 µM; at hNav1.7 it was 0.015 µM.

Source of the values: patent US10125098B2, “Therapeutic compounds and methods of use thereof” (GENENTECH, INC., priority 2014, dated 2018).
